# Test results as given in publication PMC5007854, “β-Nitrostyrenes as Potential Anti-leishmanial Agents” (Frontiers in Microbiology, 2016).
# Read-outs that look alike come from different tables or passages of the source.
# Key:
# [1] = test system: Escherichia coli ATCC 25922; test: Broth microdilution antibacterial susceptibility (MIC/MBC); format: cell-based; conditions: for MIC / MBC: Escherichia coli; for MIC: ATCC25922, 24 h
# Source text: (§1) One reference each of the following species was used for their in vitro susceptibility to β-nitrostyrene in this study: Staphylococcus aureus ATCC 29213, Staphylococcus epidermidis ATCC 14990, Escherichia coli ATCC 25922, Pseudomonas aeruginosa ATCC 27853, Candida albicans ATCC 90028, Candida glabrata ATCC 90030, Aspergillus fumigatus ATCC 16424 and Aspergillus niger ATCC 16404. These strains were procured from the American Type Culture Collection (ATCC, Manassas, VA, USA).
# (§2) The antibacterial and antifungal activities of the β-nitrostyrenes were performed by broth microdilution methods as per the guidelines of Clinical and Laboratory Standard Institute (Wayne, [1998], [2008a],[b],[c]) by using Mueller-Hinton broth (MHB; Becton-Dickinson, Cockeysville, MD, USA) supplemented with calcium (25 mg/L) and magnesium (12.5 mg/L) for bacterial strains while as RPMI 1640 medium with L-glutamine and without sodium bicarbonate, buffered to pH 7.0 with 0.165 M 3-(N-morpholino) propanesulfonic acid (MOPS; both from Sigma) was used for fungal strains. Stock solutions were prepared in 100% dimethyl sulfoxide (DMSO; Sigma; distilled water was used for ciprofloxacin), with a final DMSO concentration of 1% (vol. per vol.) and two-fold serial dilutions were prepared in media in amounts of 100 μL per well in 96-well U-bottom microtiter plates (Tarsons, Kolkata, India) to yield twice the final concentration required for testing, which ranged from 64 to 0.12 μg/mL for β-nitrostyrenes and 16 to 0.03 μg/mL for ciprofloxacin as well as amphotericin B. Stock inoculum suspensions of the bacteria, Candida species and Aspergillus species were prepared in sterile normal saline (0.85%) containing 0.05% polysorbate 20 (NST) from overnight (3 to 5-day old for Aspergillus species) strains grown on Trypticase soy agar (TSA; Becton-Dickinson) and potato dextrose agar (Difco Laboratories, Detroit, MI, USA) respectively at 35°C. Inocula were verified for each assay by plating onto agar plates for colony enumeration. These suspensions were further diluted in the respective test medium and a 100 μl volume of this diluted inoculum was added to each well of the plate, resulting in a final inoculum concentration of approximately 5 × 10^5 CFU/mL for bacter1ia, (Wayne, [2008a]) approximately 2.5 × 10^4 CFU/ml for Candida species (Pfaller et al., [2004]) while as 0.4 × 10^4 to 5 × 10^4 CFU/mL for Aspergillus species (Wayne, [2008c]). Untreated growth control, vehicle control (DMSO) and sterility control wells were included for each isolate tested. Ciprofloxacin and amphotericin B served as the standard drug controls for bacterial and fungal strains, respectively. The microtiter plates were incubated at 35°C for 24 h for bacterial strains and 48 h for fungal strains. The plates were read visually and the minimum inhibitory concentration (MIC) was defined as the lowest concentration of test sample that prevented visible growth with respect to the growth control.
# (§3) The minimum bactericidal concentration (MBC) and minimum fungicidal concentration (MFC) were determined by plating 100 μl volumes on agar plates from the wells showing no visible growth (clear MIC well). The plates were incubated as described above in MIC measurements. […] All experiments were conducted twice in duplicates on separate occasions with freshly prepared inoculums and stock solutions.
# [2] = test system: Pseudomonas aeruginosa ATCC 27853; test: as above; format: cell-based; conditions: for MIC / MBC: Pseudomonas aeruginosa; for MIC: ATCC27853, 24 h
# Source text: as §1, §2, §3
# [3] = test system: Staphylococcus aureus ATCC 29213; test: as above; format: cell-based; conditions: Staphylococcus aureus; for MIC: ATCC29213, 24 h, broth microdilution, 35°C, 24 h, read-out: MIC, Sa ATCC 29213
# Source text: as §1, §2, §3
# [4] = test system: Staphylococcus epidermidis ATCC 14990; test: as above; format: cell-based; conditions: for MIC / MBC: Staphylococcus epidermidis; for MIC: ATCC14990, 24 h
# Source text: as §1, §2, §3
# [5] = test system: Aspergillus fumigatus ATCC 16424; test: Broth microdilution antifungal susceptibility (MIC/MFC); format: cell-based; conditions: for MIC / MFC: Aspergillus fumigatus; for MIC: ATCC16424, 48 h
# Source text: as §1, §2, §3
# [6] = test system: Aspergillus niger ATCC 16404; test: as above; format: cell-based; conditions: for MIC / MFC: Aspergillus niger; for MIC: ATCC16404, 48 h
# Source text: as §1, §2, §3
# [7] = test system: Candida albicans ATCC 90028; test: as above; format: cell-based; conditions: for MIC / MFC: Candida albicans; for MIC: ATCC90028, 48 h
# Source text: as §1, §2, §3
# [8] = test system: Candida glabrata ATCC 90030; test: as above; format: cell-based; conditions: Nakaseomyces glabratus; for MIC: ATCC90030, 48 h, broth microdilution, 35°C, 48 h, read-out: MIC, Cg ATCC 90030
# Source text: as §1, §2, §3
# [9] = test system: L. donovani promastigotes; test: Anti-leishmanial screening at 100 μM, parasite viability by microscopy; format: cell-based, Leishmania donovani; conditions: for Anti-leishmanial activity, in words (SAR discussion): L. donovani promastigotes
# Method: L. donovani parasites (MHOM/IN/83/AG83) were maintained in vivo in BALB/c mice. Promastigotes were routinely cultured at 22°C in medium M199 supplemented with 10% heat inactivated fetal bovine serum (FBS, HiMedia Laboratories, Mumbai, India), penicillin 100 (IU/ml), streptomycin (100 μg/ml). Log phase promastigotes were sub-cultured every 72–96 h, the inoculum being 2 × 10^6 cells/ml (Afrin et al., [2002]).
# Nitrostyrine series were screened for their antileishmanial activity against L. donovani promastigotes in vitro. Promastigotes of L. donovani (2 × 10^6 cells/mL) in M199 medium were incubated at 22°C for 72 h with each compound at a concentration of 100 μM. Amphotericin B (AmB) served as reference drug, 0.2% DMSO was used as solvent control. Parasites with media alone were taken as control. Parasite viability was determined microscopically after 72 h (Islamuddin et al., [2014b]).
# [10] = broth microdilution, 35°C, 24 h
# [11] = broth microdilution, 35°C, 48 h
# [12] = broth microdilution, 35°C, 24 h, read-out: MIC, Ec ATCC 25922
# [13] = ATCC25922, ≥99.9% reduction of original inoculum, read-out: MBC, Ec ATCC 25922
# [14] = broth microdilution, 35°C, 24 h, read-out: MIC, Pa ATCC 27853
# [15] = ATCC27853, ≥99.9% reduction of original inoculum, read-out: MBC, Pa ATCC 27853
# [16] = ATCC29213, ≥99.9% reduction of original inoculum, read-out: MBC, Sa ATCC 29213
# [17] = broth microdilution, 35°C, 24 h, read-out: MIC, Se ATCC 14990
# [18] = ATCC14990, ≥99.9% reduction of original inoculum, read-out: MBC, Se ATCC 14990
# [19] = broth microdilution, 35°C, 48 h, read-out: MIC, Af ATCC 16424
# [20] = ATCC16424, ≥99.9% reduction of original inoculum, read-out: MFC, Af ATCC 16424
# [21] = broth microdilution, 35°C, 48 h, read-out: MIC, An ATCC 16404
# [22] = ATCC16404, ≥99.9% reduction of original inoculum, read-out: MFC, An ATCC 16404
# [23] = broth microdilution, 35°C, 48 h, read-out: MIC, Ca ATCC 90028
# [24] = ATCC90028, ≥99.9% reduction of original inoculum, read-out: MFC, Ca ATCC 90028
# [25] = ATCC90030, ≥99.9% reduction of original inoculum, read-out: MFC, Cg ATCC 90030
smiles,measurement,setting,value
"O=[N+]([O-])/C=C/c1ccc([N+](=O)[O-])cc1 [Compound 7, 1-nitro-4-((E)-2-nitrovinyl) benzene]",MIC,"[1]; read-out: MIC, Ec ATCC 25922, broth microdilution, 35°C, 24 h",16 to 32 µg/mL
same,MBC,"[1]; ATCC25922, read-out: MBC, Ec ATCC 25922",32 µg/mL
same,"MIC, Ec ATCC 25922",[1]; [10],16 µg/mL
same,MIC,"[2]; read-out: MIC, Pa ATCC 27853, broth microdilution, 35°C, 24 h",16 to 32 µg/mL
same,MBC,"[2]; ATCC27853, read-out: MBC, Pa ATCC 27853",32 µg/mL
same,"MIC, Pa ATCC 27853",[2]; [10],16 µg/mL
same,MBC,"[3]; ATCC29213, read-out: MBC, Sa ATCC 29213",8 µg/mL
same,MIC,"[4]; read-out: MIC, Se ATCC 14990, broth microdilution, 35°C, 24 h",2 to 16 µg/mL
same,MBC,"[4]; ATCC14990, read-out: MBC, Se ATCC 14990",4 µg/mL
same,"MIC, Se ATCC 14990",[4]; [10],4 µg/mL
same,MIC,"[5]; read-out: MIC, Af ATCC 16424, broth microdilution, 35°C, 48 h",4 to 8 µg/mL
same,MFC,"[5]; ATCC16424, read-out: MFC, Af ATCC 16424",4 µg/mL
same,"MIC, Af ATCC 16424",[5]; [11],4 µg/mL
same,MIC,"[6]; read-out: MIC, An ATCC 16404, broth microdilution, 35°C, 48 h",2 to 4 µg/mL
same,MFC,"[6]; ATCC16404, read-out: MFC, An ATCC 16404",2 µg/mL
same,"MIC, An ATCC 16404",[6]; [11],2 µg/mL
same,MIC,"[7]; read-out: MIC, Ca ATCC 90028, broth microdilution, 35°C, 48 h",4 to 32 µg/mL
same,MFC,"[7]; ATCC90028, read-out: MFC, Ca ATCC 90028",4 µg/mL
same,"MIC, Ca ATCC 90028",[7]; [11],4 µg/mL
same,MFC,"[8]; ATCC90030, read-out: MFC, Cg ATCC 90030",4 µg/mL
same,Parasite viability after treatment,"[9]; 100 μM, 72 h, phase contrast microscope",All the parasites were found to be dead
"CC/C(=C\c1ccc(OC)cc1)[N+](=O)[O-] [Compound 15, 1-methoxy-4-((E)-2-nitrobut-1-enyl) benzene]",MIC,[1]; [12],> 64 µg/mL
same,MBC,[1]; [13],> 64 µg/mL
same,MIC,[2]; [14],> 64 µg/mL
same,MBC,[2]; [15],> 64 µg/mL
same,MIC,[3],16 µg/mL
same,MBC,[3]; [16],32 µg/mL
same,MIC,[4]; [17],16 µg/mL
same,MBC,[4]; [18],16 µg/mL
same,MIC,[5]; [19],8 µg/mL
same,MFC,[5]; [20],16 µg/mL
same,MIC,[6]; [21],8 µg/mL
same,MFC,[6]; [22],8 µg/mL
same,MIC,[7]; [23],32 µg/mL
same,MFC,[7]; [24],32 µg/mL
same,MIC,[8],16 µg/mL
same,MFC,[8]; [25],16 µg/mL
same,"Anti-leishmanial activity, in words (SAR discussion)",[9],reduced the activity
"COc1ccc(/C=C/[N+](=O)[O-])cc1OC [Compound 22, 1,2-dimethoxy-4-((E)-2-nitrovinyl) benzene]",MIC,[1]; [12],> 64 µg/mL
same,MBC,[1]; [13],> 64 µg/mL
same,MIC,[2]; [14],> 64 µg/mL
same,MBC,[2]; [15],> 64 µg/mL
same,MIC,[3],> 64 µg/mL
same,MBC,[3]; [16],> 64 µg/mL
same,MIC,[4]; [17],64 µg/mL
same,MBC,[4]; [18],64 µg/mL
same,MIC,[5]; [19],32 µg/mL
same,MFC,[5]; [20],64 µg/mL
same,MIC,[6]; [21],32 µg/mL
same,MFC,[6]; [22],32 µg/mL
same,MIC,[7]; [23],64 µg/mL
same,MFC,[7]; [24],64 µg/mL
same,MIC,[8],16 µg/mL
same,MFC,[8]; [25],16 µg/mL
same,"Anti-leishmanial activity, in words (SAR discussion)",[9],inactive
"CC/C(=C\c1ccc(OC)c(OC)c1)[N+](=O)[O-] [Compound 24, 1,2-dimethoxy-4-((E)-2-nitrobut-1-enyl) benzene]","Anti-leishmanial activity, in words (SAR discussion)",[9],inactive
same,melting point,,78 to 80 °C
"C/C(=C\[N+](=O)[O-])c1ccc(O)cc1 [Compound 25, 4-((E)-1-nitroprop-1-en-2-yl)phenol]","Anti-leishmanial activity, in words (SAR discussion)",[9],loss of activity
same,melting point,,88 to 90 °C
"C/C(=C\c1c[nH]c2ccccc12)[N+](=O)[O-] [Compound 29, 3-((E)-2-nitroprop-1-enyl)-1H-indole]",MIC,[1]; [12],> 64 µg/mL
same,MBC,[1]; [13],> 64 µg/mL
same,MIC,[2]; [14],> 64 µg/mL
same,MBC,[2]; [15],> 64 µg/mL
same,MIC,[3],16 µg/mL
same,MBC,[3]; [16],16 µg/mL
same,MIC,[4]; [17],8 µg/mL
same,MBC,[4]; [18],8 µg/mL
same,MIC,[5]; [19],16 µg/mL
same,MFC,[5]; [20],16 µg/mL
same,MIC,[6]; [21],8 µg/mL
same,MFC,[6]; [22],8 µg/mL
same,MIC,[7]; [23],64 µg/mL
same,MFC,[7]; [24],64 µg/mL
same,MIC,[8],8 µg/mL
same,MFC,[8]; [25],8 µg/mL
same,melting point,,182 to 184 °C
"CC/C(=C\c1c[nH]c2ccccc12)[N+](=O)[O-] [Compound 30, 3-((E)-2-nitrobut-1-enyl)-1H-indole]",MIC,[1]; [12],64 µg/mL
same,MBC,[1]; [13],> 64 µg/mL
same,MIC,[2]; [14],> 64 µg/mL
same,MBC,[2]; [15],> 64 µg/mL
same,MIC,[3],16 µg/mL
same,MBC,[3]; [16],16 µg/mL
same,MIC,[4]; [17],8 µg/mL
same,MBC,[4]; [18],8 µg/mL
same,MIC,[5]; [19],64 µg/mL
same,MFC,[5]; [20],64 µg/mL
same,MIC,[6]; [21],32 µg/mL
same,MFC,[6]; [22],32 µg/mL
same,MIC,[7]; [23],> 64 µg/mL
same,MFC,[7]; [24],> 64 µg/mL
same,MIC,[8],32 µg/mL
same,MFC,[8]; [25],64 µg/mL
same,melting point,,64 to 66 °C
